Reference: patent US8217035B2, “Pyrimidine derivatives used as PI-3-kinase inhibitors” (Novartis AG, priority 2006, dated 2012)

test system: A2780 ovarian cancer cells; assay: Cellular proliferation in A2780 cells, Cell Titer Glo (Biological Method 4); type: cell-based; details: Homo sapiens; ovarian cancer cell line A2780
Procedure: In addition, many of the compounds of Table 1 were tested to determine their inhibitory activity in a cellular proliferation assay according to Biological Method 4.
The ability of the compounds of the invention to inhibit cellular proliferation were determined by using Cell Titer Glo, a commercially available assay from Promega Corporation. A2780 ovarian cancer cells were seeded in TC treated 96-well plates at a density of 1,000 per well in DMEM, 10% FBS, 1% Sodium Pyruvate, and 1% Penicillin Streptomycin for a minimum of 2 hrs prior to addition of compound. For each concentration of test compound, 2 μl (500×) aliquots of compound or 100% DMSO diluted in 500 μl of culture medium for 2× concentration then diluted 1× on the Cells. Cells were incubated for 72 hrs at 37° C., 5% CO2. After the 72 hour incubation, Cell Titer Glo reagent is added to determine number of viable cells remaining after exposure to the compound, and the EC50 value was calculated. The assay was performed according to the manufacturer's instruction (Promega Corporation, Madison, Wis. USA). Each experimental condition was performed in duplicate.

Q: How did the EC50 turn out when Nc1ncc(-c2cc(-c3cccnc3)nc(N3CCOCC3)n2)cn1 [Compound 518] was run?
A: Its EC50 is < 1000 nM.

Q: Which EC50 does the source give for CC(C)C(=O)N1CCC(Oc2cc(-c3cnc(N)cc3C(F)(F)F)nc(N3CCOCC3)n2)CC1 [Compound 458] here?
A: The EC50 was < 10000 nM.

Q: For CS(=O)(=O)N1CCC(Oc2cc(-c3cnc(N)cc3C(F)(F)F)nc(N3CCOCC3)n2)CC1 [Compound 461], which EC50 is on record?
A: Its EC50 is < 10000 nM.

Q: With Nc1ncc(-c2cc(NC3CCCCC3)nc(N3CCOCC3)n2)cn1 [Compound 405] as the compound, how does the EC50 read?
A: The EC50 was < 10000 nM.

Q: Nc1ccc(-c2cc(Nc3ccc4ccccc4n3)nc(N3CCOCC3)n2)cn1 [Compound 438] was tested. Which EC50 did it give?
A: Its EC50 is < 10000 nM.

Q: How did the EC50 turn out when Nc1ncc(-c2cc(N3CCOc4ccccc43)nc(N3CCOCC3)n2)c(C(F)(F)F)n1 [Compound 546] was run?
A: Its EC50 is < 10000 nM.

Q: Nc1ncc(-c2cc(Nc3ccc4c(c3)NC(=O)CO4)nc(N3CCOCC3)n2)cn1 [Compound 413] was tested. Which EC50 did it give?
A: The EC50 was < 10000 nM.

Q: Which EC50 does the source give for Nc1ncc(-c2cc(N3CCCC3Cc3ccccc3)nc(N3CCOCC3)n2)cn1 (stereo not drawn) [Compound 407] here?
A: The EC50 was < 10000 nM.

Q: Which EC50 does the source give for Nc1ccc(-c2cc(-c3cccnc3F)nc(N3CCOCC3)n2)cn1 [Compound 508] here?
A: The EC50 was < 10000 nM.

Q: With Nc1cc(C(F)(F)F)c(-c2ccnc(N3CCOCC3)n2)cn1 [Compound 466] as the compound, how does the EC50 read?
A: Its EC50 is < 25000 nM.

Q: For CC(=O)N1CC[C@H](Oc2cc(-c3cnc(N)cc3C(F)(F)F)nc(N3CCOCC3)n2)C1 [Compound 22], which EC50 is on record?
A: The EC50 was < 10000 nM.

Q: For Nc1cc(C(F)(F)F)c(-c2cc(Nc3ccc4c(c3)OCCO4)nc(N3CCOCC3)n2)cn1 [Compound 446], which EC50 is on record?
A: Its EC50 is < 25000 nM.

Q: For Nc1ncc(-c2cc(N3CCc4ccccc4C3)nc(N3CCOCC3)n2)cn1 [Compound 403], which EC50 is on record?
A: The EC50 was < 10000 nM.

Q: Nc1ccc(-c2cc(Nc3cc(F)ccc3F)nc(N3CCOCC3)n2)cn1 [Compound 436] was tested. Which EC50 did it give?
A: Its EC50 is < 10000 nM.

Q: How did the EC50 turn out when COC(=O)N1CCC[C@@H](Oc2cc(-c3cnc(N)cc3C(F)(F)F)nc(N3CCOCC3)n2)C1 [Compound 452] was run?
A: Its EC50 is < 10000 nM.

Q: Which EC50 does the source give for CS(=O)(=O)N1CC[C@@H](Oc2cc(-c3cnc(N)cc3C(F)(F)F)nc(N3CCOCC3)n2)C1 [Compound 540] here?
A: Its EC50 is < 10000 nM.

Q: Which EC50 does the source give for Cc1c(-c2cnc(N)nc2)nc(N2CCOCC2)nc1-c1cccc(S(C)(=O)=O)c1 [Compound 548] here?
A: The EC50 was < 10000 nM.

Q: How did the EC50 turn out when Nc1ncc(-c2cc(O[C@H]3CCCN(C(=O)c4ccc(F)cc4)C3)nc(N3CCOCC3)n2)c(N)n1 [Compound 528] was run?
A: Its EC50 is < 10000 nM.

Q: Which EC50 does the source give for Nc1cc(C(F)(F)F)c(-c2cc(Nc3cnc4ccc(OCCN5CCCC5)cc4c3)nc(N3CCOCC3)n2)cn1 [Compound 489] here?
A: The EC50 was < 10000 nM.

Q: With CC(C)N1CCN(c2ccc(Nc3cc(-c4cnc(N)cc4C(F)(F)F)nc(N4CCOCC4)n3)cn2)CC1 [Compound 488] as the compound, how does the EC50 read?
A: Its EC50 is < 10000 nM.

same assay, conditions: Homo sapiens; ovarian cancer cell line A2780, Biological Method 4

Q: Nc1cc(C(F)(F)F)c(-c2cc(N3CCC(=O)CC3)nc(N3CCOCC3)n2)cn1 [Compound 324] was tested. Which EC50 did it give?
A: The EC50 was < 10000 nM.

Q: With Nc1ncc(-c2cc(NC(=O)Cc3cccnc3)nc(N3CCOCC3)n2)cn1 [Compound 291] as the compound, how does the EC50 read?
A: The EC50 was < 25000 nM.

Q: Which EC50 does the source give for Nc1cc(Cl)c(-c2cc(N3CCOC(c4ccccc4)C3)nc(N3CCOCC3)n2)cn1 (stereo not drawn) [Compound 342] here?
A: The EC50 was < 10000 nM.

Q: CC(=O)c1cccc(-c2cc(-c3ccc(N)nc3)nc(N3CCOCC3)n2)c1 [Compound 252] was tested. Which EC50 did it give?
A: The EC50 was < 10000 nM.

molecular target: PI3 kinase alpha (Homo sapiens, UniProt P42336); assay: PI3K ATP depletion assay (Biological Method 1, Assay 3; KinaseGlo luminescence); type: biochemical; details: ATP depletion assay, Biological Method 1; read-out: PI3 Kinase Alpha, IC50
Sequence (P42336 whole entry): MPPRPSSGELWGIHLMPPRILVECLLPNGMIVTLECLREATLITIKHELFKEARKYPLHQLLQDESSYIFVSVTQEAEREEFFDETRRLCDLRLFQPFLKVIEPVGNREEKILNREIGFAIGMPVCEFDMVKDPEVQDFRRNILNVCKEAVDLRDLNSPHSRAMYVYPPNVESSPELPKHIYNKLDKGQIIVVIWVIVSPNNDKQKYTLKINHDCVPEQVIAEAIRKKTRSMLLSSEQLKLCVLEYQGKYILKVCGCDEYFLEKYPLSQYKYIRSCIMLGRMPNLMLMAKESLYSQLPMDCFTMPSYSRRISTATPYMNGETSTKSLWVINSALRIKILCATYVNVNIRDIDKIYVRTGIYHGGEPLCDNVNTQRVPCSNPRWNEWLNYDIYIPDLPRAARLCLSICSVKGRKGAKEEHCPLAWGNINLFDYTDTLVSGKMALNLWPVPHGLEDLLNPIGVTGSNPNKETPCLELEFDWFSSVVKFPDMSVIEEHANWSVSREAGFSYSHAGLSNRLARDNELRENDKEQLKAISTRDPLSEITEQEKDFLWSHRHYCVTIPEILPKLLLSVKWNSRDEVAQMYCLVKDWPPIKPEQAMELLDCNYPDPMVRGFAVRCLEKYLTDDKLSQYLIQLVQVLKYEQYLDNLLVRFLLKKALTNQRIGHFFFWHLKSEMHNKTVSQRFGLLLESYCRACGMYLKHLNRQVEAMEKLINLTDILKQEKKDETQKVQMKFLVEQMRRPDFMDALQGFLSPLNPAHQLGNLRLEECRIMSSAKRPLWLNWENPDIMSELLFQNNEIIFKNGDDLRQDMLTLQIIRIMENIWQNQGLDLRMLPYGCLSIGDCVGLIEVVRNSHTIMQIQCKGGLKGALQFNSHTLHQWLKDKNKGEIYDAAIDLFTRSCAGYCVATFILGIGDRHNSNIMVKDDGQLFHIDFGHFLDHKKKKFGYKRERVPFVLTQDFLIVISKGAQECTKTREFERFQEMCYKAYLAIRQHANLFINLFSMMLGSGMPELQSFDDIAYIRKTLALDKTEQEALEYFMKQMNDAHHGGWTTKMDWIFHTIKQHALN
Sequence (P27986 whole entry partner): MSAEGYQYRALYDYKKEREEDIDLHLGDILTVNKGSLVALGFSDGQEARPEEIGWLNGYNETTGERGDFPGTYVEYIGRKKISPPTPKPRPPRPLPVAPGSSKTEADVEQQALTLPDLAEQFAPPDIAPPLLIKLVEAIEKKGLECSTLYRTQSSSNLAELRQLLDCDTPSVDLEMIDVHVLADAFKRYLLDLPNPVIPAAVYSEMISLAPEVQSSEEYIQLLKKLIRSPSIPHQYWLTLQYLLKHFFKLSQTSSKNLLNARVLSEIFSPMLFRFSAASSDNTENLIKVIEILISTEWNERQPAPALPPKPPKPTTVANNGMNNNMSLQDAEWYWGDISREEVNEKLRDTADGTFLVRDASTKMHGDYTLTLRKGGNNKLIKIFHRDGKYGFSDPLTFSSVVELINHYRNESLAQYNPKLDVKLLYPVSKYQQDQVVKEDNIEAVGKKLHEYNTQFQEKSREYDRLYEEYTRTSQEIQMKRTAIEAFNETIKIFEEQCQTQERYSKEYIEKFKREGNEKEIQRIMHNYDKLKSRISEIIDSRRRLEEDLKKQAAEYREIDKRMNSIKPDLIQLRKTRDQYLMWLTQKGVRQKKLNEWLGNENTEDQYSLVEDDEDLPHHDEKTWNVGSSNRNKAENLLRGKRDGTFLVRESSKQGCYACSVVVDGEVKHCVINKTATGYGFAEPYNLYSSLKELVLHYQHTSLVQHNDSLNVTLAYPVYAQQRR
How it was run: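 Compound in DMSO was mixed with 10 nM PI3 kinase and 5 μg/mL phosphatidylinositol, and the reaction was started with 2 μM ATP. It ran to about 50% ATP depletion and was stopped with KinaseGlo.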

Q: With Nc1cc(C(F)(F)F)c(-c2cc(N3CCC(=O)CC3)nc(N3CCOCC3)n2)cn1 [Compound 324] as the compound, how does the IC50 read?
A: Its IC50 is < 1000 nM.

Q: Which IC50 does the source give for Nc1ncc(-c2cc(NC(=O)Cc3cccnc3)nc(N3CCOCC3)n2)cn1 [Compound 291] here?
A: Its IC50 is < 1000 nM.

Q: Which IC50 does the source give for Nc1cc(Cl)c(-c2cc(N3CCOC(c4ccccc4)C3)nc(N3CCOCC3)n2)cn1 (stereo not drawn) [Compound 342] here?
A: Its IC50 is < 1000 nM.

Q: For CC(=O)c1cccc(-c2cc(-c3ccc(N)nc3)nc(N3CCOCC3)n2)c1 [Compound 252], which IC50 is on record?
A: The IC50 was < 1000 nM.

same assay, conditions: ATP depletion assay; read-out: PI3 Kinase Alpha, IC50

Q: For Nc1ncc(-c2cc(-c3cccnc3)nc(N3CCOCC3)n2)cn1 [Compound 518], which IC50 is on record?
A: Its IC50 is < 1000 nM.

Q: How did the IC50 turn out when CC(C)C(=O)N1CCC(Oc2cc(-c3cnc(N)cc3C(F)(F)F)nc(N3CCOCC3)n2)CC1 [Compound 458] was run?
A: The IC50 was < 1000 nM.

Q: For CS(=O)(=O)N1CCC(Oc2cc(-c3cnc(N)cc3C(F)(F)F)nc(N3CCOCC3)n2)CC1 [Compound 461], which IC50 is on record?
A: Its IC50 is < 1000 nM.

Q: Nc1ncc(-c2cc(NC3CCCCC3)nc(N3CCOCC3)n2)cn1 [Compound 405] was tested. Which IC50 did it give?
A: The IC50 was < 1000 nM.

Q: For Nc1ccc(-c2cc(Nc3ccc4ccccc4n3)nc(N3CCOCC3)n2)cn1 [Compound 438], which IC50 is on record?
A: Its IC50 is < 1000 nM.

Q: Which IC50 does the source give for Nc1ncc(-c2cc(N3CCOc4ccccc43)nc(N3CCOCC3)n2)c(C(F)(F)F)n1 [Compound 546] here?
A: Its IC50 is < 1000 nM.

Q: For Nc1ncc(-c2cc(Nc3ccc4c(c3)NC(=O)CO4)nc(N3CCOCC3)n2)cn1 [Compound 413], which IC50 is on record?
A: The IC50 was < 1000 nM.

Q: For Nc1ncc(-c2cc(N3CCCC3Cc3ccccc3)nc(N3CCOCC3)n2)cn1 (stereo not drawn) [Compound 407], which IC50 is on record?
A: The IC50 was < 1000 nM.

Q: How did the IC50 turn out when Nc1ccc(-c2cc(-c3cccnc3F)nc(N3CCOCC3)n2)cn1 [Compound 508] was run?
A: The IC50 was < 1000 nM.

Q: How did the IC50 turn out when Nc1cc(C(F)(F)F)c(-c2ccnc(N3CCOCC3)n2)cn1 [Compound 466] was run?
A: The IC50 was < 1000 nM.

Q: CC(=O)N1CC[C@H](Oc2cc(-c3cnc(N)cc3C(F)(F)F)nc(N3CCOCC3)n2)C1 [Compound 22] was tested. Which IC50 did it give?
A: The IC50 was < 1000 nM.

Q: Which IC50 does the source give for Nc1cc(C(F)(F)F)c(-c2cc(Nc3ccc4c(c3)OCCO4)nc(N3CCOCC3)n2)cn1 [Compound 446] here?
A: Its IC50 is < 1000 nM.

Q: Nc1ncc(-c2cc(N3CCc4ccccc4C3)nc(N3CCOCC3)n2)cn1 [Compound 403] was tested. Which IC50 did it give?
A: Its IC50 is < 1000 nM.

Q: For Nc1ccc(-c2cc(Nc3cc(F)ccc3F)nc(N3CCOCC3)n2)cn1 [Compound 436], which IC50 is on record?
A: The IC50 was < 1000 nM.

Q: COC(=O)N1CCC[C@@H](Oc2cc(-c3cnc(N)cc3C(F)(F)F)nc(N3CCOCC3)n2)C1 [Compound 452] was tested. Which IC50 did it give?
A: Its IC50 is < 1000 nM.

Q: Which IC50 does the source give for CS(=O)(=O)N1CC[C@@H](Oc2cc(-c3cnc(N)cc3C(F)(F)F)nc(N3CCOCC3)n2)C1 [Compound 540] here?
A: The IC50 was < 1000 nM.

Q: Which IC50 does the source give for Cc1c(-c2cnc(N)nc2)nc(N2CCOCC2)nc1-c1cccc(S(C)(=O)=O)c1 [Compound 548] here?
A: The IC50 was < 1000 nM.

Q: Which IC50 does the source give for Nc1ncc(-c2cc(O[C@H]3CCCN(C(=O)c4ccc(F)cc4)C3)nc(N3CCOCC3)n2)c(N)n1 [Compound 528] here?
A: The IC50 was < 1000 nM.

Q: Which IC50 does the source give for Nc1cc(C(F)(F)F)c(-c2cc(Nc3cnc4ccc(OCCN5CCCC5)cc4c3)nc(N3CCOCC3)n2)cn1 [Compound 489] here?
A: The IC50 was < 1000 nM.

Q: Which IC50 does the source give for CC(C)N1CCN(c2ccc(Nc3cc(-c4cnc(N)cc4C(F)(F)F)nc(N4CCOCC4)n3)cn2)CC1 [Compound 488] here?
A: Its IC50 is < 1000 nM.
